Experimental data: US6429208B1, “Methods and compositions for restoring impaired cellular immune function” (Regents of the University of California, priority 1992, dated 2002)

Columns and labels:
[1] = system: PBMC from HIV seropositive donors; test: Immunoglobulin / anti-HIV antibody production by PBMC from HIV seropositive donors; format: cell-based, human; settings: 10 days
Procedure: Immunoglobulin production by B-cells is regulated by T-cells; CD4 provides “help” for de novo synthesis and CD8 suppresses immunoglobulin production. In HIV infection, increased total immunoglobulin production with a decrease in certain specific HIV antibodies to HIV GAG proteins during infection is a common finding (Lange, et al. AIDS (1987) 1:155-9). In this experiment, 10^6 PBMC from HIV seropositive donors were incubated in 1 ml cultures with and without ddAdo (1-100 ng/ml) for 10 days. IgG and anti-HIV antibodies in supernatant were measured by ELISA. p24 binding capacity was measured with a kit from DuPont following the manufacturer's protocol. Addition of ddAdo to cultures of PBMC from HIV seropositive subjects restored production of specific antibodies to p24 (Table 3). An effect of ddAdo on T-cells has been shown above but a possible direct effect on B-cells cannot be ruled out.
Addition of ddAdo to cultures of PBMC from HIV seropositive subjects increased spontaneous anti-p24 antibodies in individuals with none/low spontaneous production (p24 is an HIV core protein). One million PBMC from HIV seropositive donors were incubated in 1 ml cultures with and without ddAdo (1-100 ng/ml) for 10 days. IgG10 and production of anti-HIV antibodies to p24 in supernatants were measured by ELISA. p24 binding capacity was measured with a kit from DuPont (Delaware) following the manufacturer's protocol.

[2] = system: PBMC from HIV seropositive subjects; test: Intracellular cAMP in PBMC from HIV seropositive subjects; format: cell-based, human
Procedure: The compound 2′,5′ dideoxyadenosine (ddAdo) inhibits adenylate cyclase, the enzyme responsible for the generation of cAMP, by competition for the “P”-binding site (Johnson, J Biochem (1990) 265:11595-11600). […] In one such experiment (FIG. 9A), the intracellular cAMP level decreased to normal levels within 4 hours and remained at this level when tested after 20 hours. The effect of ddAdo was compared with two other adenylate cyclase inhibitors which are naturally occurring adenosine phosphates. When used in equal concentrations, the three inhibitors gave similar reductions in intracellular CAMP levels. For example, when added in 10 ng/ml for 10 min, ddAdo decreased the CAMP levels from 5.3 pmol/10^6 PBMC to 3.6; 3′ AMP to 3.5; and 2′,3′deoxy-AMP reduced the level to 3.2 pmol/10^6 PBMC.
cAMP was determined using a commercial scintillation proximity RIA (Amersham, Arlington Heights, Ill.) following the manufacturer's protocol. PKA activity was determined using a kit from Gibco (Grand Island, N.Y.) and the manufacturer's protocol. For the cAMP assay, cells were lysed and sonicated in assay buffer (provided with the kits). Proliferative assays were performed as described above.
Further purification was achieved by reverse phase chromatography. 3 ml of above solution was applied on C18 Sep-Pak cartridge (Waters) equilibrated with water+0.1% TFA. The column was washed with H2O-TFA until absorbance at 280nm reached baseline. Bound material was eluted from the column by stepwise elution with H2O-acetonitrile-TFA mixtures. There were three peaks on elution curve at 20%, 40% and 70% acetonitrile. The effluent from the above step was rechromatographed again on C18 cartridge and yielded additional quantities of the three products. […] Fraction 2 was added in various PBS dilutions to lymphocytes from HIV seropositive subjects. cAMP was then measured on lysates of these cells after 1 hour.

[3] = system: PBMC from HIV seropositive subjects; test: Proliferative response to Candida albicans, PBMC from HIV seropositive subjects; format: cell-based, human
Procedure: (§1) Proliferative assays were done in triplicates of 50,000 PBMC in 200 μL RPMI with 10% FCS and 8 μg/ml of Candida albicans. ddAdo was added in two-fold dilutions; tritiated thymidine was added at day 5 and cells were harvested at day 6. Concentrations of ddAdo from 12.5 to 50 ng/ml gave the highest responses. […] Ratio 1:12 gave 48% (±12) without and 76% (±9) with ddAdo during priming. Ratio 1:25 gave 61% (±15) without and 77% (±9) with ddAdo.

[4] = Personal Communication; cited from earlier work
[5] = system: PBMC from an HIV seropositive subject; test: Proliferative response to PHA of PBMC from HIV seropositive subjects; format: cell-based, human
Procedure: (§2) Proliferative assays were performed as previously described (see, for example, Hofmann, B., et al., Cell Immunol (1989) 121:336-48. Briefly, one microcurie ^3H-thymidine was added to cultures 72 hours after stimulation, and after further 24 hours, all cultures were harvested on glass fiber filters with an automatic harvesting machine (Skatron, Lierbyen, Norway), and the incorporated radioactivity was measured in a liquid scintillation counter (Beckman LS 1800) after an addition of 1.5 ml scintillation fluid.

[6] = system: PBMC; test: Proliferative response to PHA after preincubation with HIV components; format: cell-based, human; settings: HIV components 1 hour, wash, ddAdo 10 minutes, 5 of 5 experiments, FIG. 7
Procedure: as §2
HIV components were added to PBMC for 1 hour followed by washing and then treating the cells with dideoxyadenosine (ddAdo) for 10 minutes, again followed by washing. Under these circumstances, the proliferative response to PHA could be restored (FIG. 7).

[7] = system: PBMC from HIV seronegative controls; test: Proliferative response to Candida albicans, HIV seronegative controls; format: cell-based, human; settings: seven HIV seronegative controls; without ddAdo 6600 (±2000)
Procedure: as §1

[8] = system: T lymphocyte; test: T lymphocyte proliferative response to HIV-specific protein (p24) in HIV seropositive subjects; format: cell-based, human; settings: FIG. 11
Excerpt: FIG. 11 is a graph showing T lymphocyte proliferative response in HIV seropositive subjects to a specific recall antigen (Candida albicans) and to an HIV-specific protein (p24) before and after ddAdo treatment.

With `C[C@H]1O[C@@H](n2cnc3c(N)ncnc32)C[C@@H]1O` [ddAdo, 2′,5′ dideoxyadenosine] the “p24 Binding Capacity” value ([1]; Patient 1, none 0) was 14 pg/mL, the IgG ([1]; Patient 1, none 326) was 367 µg/mL and the “Anti-HIV Ab” value ([1]; Patient 1, none .5910) was “.5300 OD”. The “p24 Binding Capacity” value ([1]; Patient 2, none 0) was 16 pg/mL, the IgG ([1]; Patient 2, none 98) was 89 µg/mL and the “Anti-HIV Ab” value ([1]; Patient 2, none .1320) was “.1940 OD”. The “p24 Binding Capacity” value ([1]; Patient 3, none 0) was 88 pg/mL, the “Anti-HIV Ab” value ([1]; Patient 3, none 1.1390) was 1.0820 OD and the IgG ([1]; Patient 3, none 366) was 309 µg/mL. The “p24 Binding Capacity” value ([1]; Patient 4, none 25) was 49 pg/mL, the IgG ([1]; Patient 4, none 123) was 142 µg/mL and the “Anti-HIV Ab” value ([1]; Patient 4, none .2000) was “.1640 OD”. For the same compound, the “p24 Binding Capacity” value ([1]; Patient 5, none 41) was 32 pg/mL, the IgG ([1]; Patient 5, none 55) was 192 µg/mL and the “Anti-HIV Ab” value ([1]; Patient 5, none .1480) was “.1360 OD”. The “p24 Binding Capacity” value ([1]; Patient 6, none 60) was 50 pg/mL, the IgG ([1]; Patient 6, none 76) was 80 µg/mL and the “Anti-HIV Ab” value ([1]; Patient 6, none .0330) was “.0330 OD”. The IgG ([1]; Patient 7, none 244) was 145 µg/mL, the “p24 Binding Capacity” value ([1]; Patient 7, none 376) was 418 pg/mL and the “Anti-HIV Ab” value ([1]; Patient 7, none .0570) was “.2990 OD”. The IgG ([1]; Patient 8, none 143) was 170 µg/mL, the “p24 Binding Capacity” value ([1]; Patient 8, none 1540) was 1560 pg/mL and the “Anti-HIV Ab” value ([1]; Patient 8, none .4860) was “.3900 OD”. For the same compound, the cAMP levels ([2]; 10 ng/ml for 10 min, decreased from 5.3) was 3.6 pmol/10^6 PBMC, the “Time for intracellular cAMP level to decrease to normal levels” value ([2]; added for 10 minutes followed by washing, remained at this level after 20 hours, FIG. 9A) was at most 4 h and the “Responses to Candida albicans (mean and SEM)” value ([3]; 14 HIV seropositive subjects, increased from 2900 (±1300)) was 6100 (±1600) cpm. The “Responses to Candida albicans” value ([3]; some HIV seropositive subjects, increased from less than 1000 cpm, FIG. 10A) was “about 10,000 cpm”, the Antiviral effect [4] was “no antiviral effect” and the “Proliferative response to PHA” value [5] was “improved”. The “Proliferative response to PHA” value [6] was “restored”, the “Responses to Candida albicans” value [7] was 7600 (±1.9) cpm and the “T lymphocyte responses directed against HIV” value [8] was “restores/increases”.
